Details: 101.33 kPa, Liquid; for speed of sound: Pulse-echo method; for mass density: Vibrating tube method

CCC(=O)[O-].C[NH2+]CCO [2-hydroxy-N-methylethanaminium propionate]
Details | mass density [kg/m3] | speed of sound [m/s] | viscosity [mPa·s]
322.91 K | 1054.99 | 1616.7 | –
323.15 K | – | – | 55.1
323.16 K | 1054.82 | 1616 | –
323.41 K | 1054.65 | 1615.2 | –
323.65 K | 1054.48 | 1614.5 | –
323.91 K | 1054.31 | 1613.7 | –
324.16 K | 1054.15 | 1613 | –
324.41 K | 1053.97 | 1612.2 | –
324.65 K | 1053.81 | 1611.4 | –
324.9 K | 1053.64 | 1610.7 | –
325.16 K | 1053.47 | 1609.9 | –
325.4 K | 1053.3 | 1609.2 | –
325.66 K | 1053.13 | 1608.4 | –
325.9 K | 1052.96 | 1607.7 | –
326.16 K | 1052.79 | 1606.9 | –
326.41 K | 1052.62 | 1606.2 | –
326.66 K | 1052.45 | 1605.4 | –
326.9 K | 1052.29 | 1604.7 | –
327.16 K | 1052.12 | 1603.9 | –
327.4 K | 1051.94 | 1603.2 | –
327.66 K | 1051.78 | 1602.4 | –
327.9 K | 1051.61 | 1601.7 | –
328.15 K | 1051.44 | 1600.9 | –
328.41 K | 1051.27 | 1600.2 | –
328.66 K | 1051.1 | 1599.4 | –
328.9 K | 1050.93 | 1598.6 | –
329.16 K | 1050.76 | 1597.9 | –
329.4 K | 1050.59 | 1597.1 | –
329.65 K | 1050.42 | 1596.4 | –
329.9 K | 1050.24 | 1595.6 | –
330.16 K | 1050.07 | 1594.9 | –
330.41 K | 1049.9 | 1594.1 | –
330.66 K | 1049.73 | 1593.3 | –
330.91 K | 1049.56 | 1592.6 | –
331.16 K | 1049.39 | 1591.8 | –
331.41 K | 1049.22 | 1591.1 | –
331.66 K | 1049.05 | 1590.3 | –
331.91 K | 1048.88 | 1589.5 | –
332.16 K | 1048.71 | 1588.8 | –
332.41 K | 1048.54 | 1588 | –
332.66 K | 1048.36 | 1587.3 | –
332.91 K | 1048.19 | 1586.5 | –
333.16 K | 1048.02 | 1585.7 | –
333.41 K | 1047.85 | 1585 | –
333.66 K | 1047.68 | 1584.2 | –
333.91 K | 1047.51 | 1583.5 | –
334.16 K | 1047.33 | 1582.7 | –
334.41 K | 1047.16 | 1582 | –
334.66 K | 1046.99 | 1581.2 | –
334.91 K | 1046.82 | 1580.5 | –
335.16 K | 1046.64 | 1579.7 | –
335.41 K | 1046.47 | 1579 | –
335.66 K | 1046.3 | 1578.2 | –
335.91 K | 1046.13 | 1577.5 | –
336.16 K | 1045.95 | 1576.7 | –
336.41 K | 1045.78 | 1576 | –
336.66 K | 1045.61 | 1575.2 | –
336.9 K | 1045.44 | 1574.4 | –
337.16 K | 1045.27 | 1573.7 | –
337.4 K | 1045.09 | 1572.9 | –
337.66 K | 1044.92 | 1572.1 | –
337.9 K | 1044.75 | 1571.3 | –
338.15 K | 1044.58 | 1570.6 | –
